Experimental data from patent publication US11807835B2, “Detergent compositions containing a stabilized enzyme by phosphonates” (ECOLAB USA INC., priority 2016, dated 2023).

What was measured:
Format in all cases: biochemical
[1] = test system: enzyme (protease, amylase, lipase); assay: Overall effects of phosphonates on enzyme activity (Table 3); conditions: overall effect of the phosphonate on enzyme activity in the detergent use solution
Procedure, shortened: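 Protease, amylase and lipase activity in detergent use solutions with varied phosphonate levels, 4000 ppm in 5 GPG water at 120° F., sampled up to 4 h and frozen at −80° C. before assay. Activity given as % retention relative to t=0 (100%).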

[2] = test system: protease; assay: Protease activity retention in detergent use solution (4000 ppm, 5 GPG water; peptidyl substrate, glycine buffer pH 9.0); conditions: for Relative Protease Enzyme Activity: use solution at 120° F.
Procedure, shortened: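 Detergent use solutions at 4000 ppm in 5 GPG water were held at 120° F with stirring and sampled up to 4 h, with aliquots flash-frozen. Activity was read on a peptidyl substrate in glycine buffer pH 9.0 by absorbance against a calibration curve. Retention is % activity relative to the t=0 sample.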

[3] = test system: amylase; assay: Amylase activity retention in detergent use solution (4000 ppm, 5 GPG water; ethylidene substrate EPS, HEPES buffer pH 8.0)
Procedure, shortened: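 Detergent use solution at 4000 ppm in 5 GPG water held at 120° F.; aliquots taken up to 4 h, flash-frozen, then assayed with p-nitrophenyl valerate in TRIS pH 8.0 (lipase) or EPS substrate in HEPES pH 8.0 (amylase). Retention given as % activity relative to t=0.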

SMILES: O=C(O)CCC(CC(=O)O)(C(=O)O)P(=O)(O)O (centres unmarked) [PBTC, Phosphonebutane tricarboxylic acid]
- Stability (effects on enzyme activity) [1]: No
- Relative Protease Enzyme Activity ([2]; All Ash formula, phosphonate 0.3 wt-%, time 0 min): 100.00%
- Relative Protease Enzyme Activity ([2]; All Ash formula, phosphonate 0.3 wt-%, time 5 min): 11.99%
- Relative Protease Enzyme Activity ([2]; All Ash formula, phosphonate 0.3 wt-%, time 10 min): 3.18%
- Relative Protease Enzyme Activity ([2]; All Ash formula, phosphonate 0.3 wt-%, time 20 min): −0.81%
- Relative Protease Enzyme Activity ([2]; All Ash formula, phosphonate 0.3 wt-%, time 40 min): −1.79%
- Relative Protease Enzyme Activity ([2]; All Ash formula, phosphonate 0.3 wt-%, time 60 min): −1.94%
- Relative Protease Enzyme Activity ([2]; All Ash formula, phosphonate 0.3 wt-%, time 90 min): −1.57%
- Relative Protease Enzyme Activity ([2]; All Ash formula, phosphonate 0.3 wt-%, time 120 min): −1.11%
- Relative Protease Enzyme Activity ([2]; All Ash formula, phosphonate 0.3 wt-%, time 150 min): −1.04%
- Relative Protease Enzyme Activity ([2]; All Ash formula, phosphonate 0.3 wt-%, time 180 min): −2.62%
- Relative Protease Enzyme Activity ([2]; All Ash formula, phosphonate 0.3 wt-%, time 210 min): −3.07%
- Relative Protease Enzyme Activity ([2]; All Ash formula, phosphonate 0.3 wt-%, time 240 min): −2.02%
- Relative Protease Enzyme Activity ([2]; base formula, phosphonate 0.3 wt-%, time 0 min): 100.00%
- Relative Protease Enzyme Activity ([2]; base formula, phosphonate 0.3 wt-%, time 5 min): 52.04%
- Relative Protease Enzyme Activity ([2]; base formula, phosphonate 0.3 wt-%, time 10 min): 30.98%
- Relative Protease Enzyme Activity ([2]; base formula, phosphonate 0.3 wt-%, time 20 min): 14.75%
- Relative Protease Enzyme Activity ([2]; base formula, phosphonate 0.3 wt-%, time 40 min): 7.33%
- Relative Protease Enzyme Activity ([2]; base formula, phosphonate 0.3 wt-%, time 60 min): 5.15%
- Relative Protease Enzyme Activity ([2]; base formula, phosphonate 0.3 wt-%, time 90 min): 4.01%
- Relative Protease Enzyme Activity ([2]; base formula, phosphonate 0.3 wt-%, time 120 min): 2.91%
- Relative Protease Enzyme Activity ([2]; base formula, phosphonate 0.3 wt-%, time 150 min): 2.21%
- Relative Protease Enzyme Activity ([2]; base formula, phosphonate 0.3 wt-%, time 180 min): 1.52%
- Relative Protease Enzyme Activity ([2]; base formula, phosphonate 0.3 wt-%, time 210 min): 1.01%
- Relative Protease Enzyme Activity ([2]; base formula, phosphonate 0.3 wt-%, time 240 min): 0.63%
- Relative Protease Enzyme Activity ([2]; base formula, phosphonate 0.6 wt-%, time 0 min): 100.00%
- Relative Protease Enzyme Activity ([2]; base formula, phosphonate 0.6 wt-%, time 5 min): 60.27%
- Relative Protease Enzyme Activity ([2]; base formula, phosphonate 0.6 wt-%, time 10 min): 35.81%
- Relative Protease Enzyme Activity ([2]; base formula, phosphonate 0.6 wt-%, time 20 min): 16.27%
- Relative Protease Enzyme Activity ([2]; base formula, phosphonate 0.6 wt-%, time 40 min): 7.44%
- Relative Protease Enzyme Activity ([2]; base formula, phosphonate 0.6 wt-%, time 60 min): 4.84%
- Relative Protease Enzyme Activity ([2]; base formula, phosphonate 0.6 wt-%, time 90 min): 2.96%
- Relative Protease Enzyme Activity ([2]; base formula, phosphonate 0.6 wt-%, time 120 min): 1.76%
- Relative Protease Enzyme Activity ([2]; base formula, phosphonate 0.6 wt-%, time 150 min): 1.32%
- Relative Protease Enzyme Activity ([2]; base formula, phosphonate 0.6 wt-%, time 180 min): 0.91%
- Relative Protease Enzyme Activity ([2]; base formula, phosphonate 0.6 wt-%, time 210 min): 0.70%
- Relative Protease Enzyme Activity ([2]; base formula, phosphonate 0.6 wt-%, time 240 min): 0.39%
- Relative Protease Enzyme Activity ([2]; base formula, phosphonate at 0.1% elemental phosphorus, time 0 min): 100.00%
- Relative Protease Enzyme Activity ([2]; base formula, phosphonate at 0.1% elemental phosphorus, time 5 min): 86.68%
- Relative Protease Enzyme Activity ([2]; base formula, phosphonate at 0.1% elemental phosphorus, time 10 min): 55.40%
- Relative Protease Enzyme Activity ([2]; base formula, phosphonate at 0.1% elemental phosphorus, time 20 min): 23.91%
- Relative Protease Enzyme Activity ([2]; base formula, phosphonate at 0.1% elemental phosphorus, time 40 min): 8.20%
- Relative Protease Enzyme Activity ([2]; base formula, phosphonate at 0.1% elemental phosphorus, time 60 min): 4.68%
- Relative Protease Enzyme Activity ([2]; base formula, phosphonate at 0.1% elemental phosphorus, time 90 min): 2.99%
- Relative Protease Enzyme Activity ([2]; base formula, phosphonate at 0.1% elemental phosphorus, time 120 min): 2.04%
- Relative Protease Enzyme Activity ([2]; base formula, phosphonate at 0.1% elemental phosphorus, time 150 min): 1.54%
- Relative Protease Enzyme Activity ([2]; base formula, phosphonate at 0.1% elemental phosphorus, time 180 min): 1.01%
- Relative Protease Enzyme Activity ([2]; base formula, phosphonate at 0.1% elemental phosphorus, time 210 min): 0.73%
- Relative Protease Enzyme Activity ([2]; base formula, phosphonate at 0.1% elemental phosphorus, time 240 min): 0.42%
- enzyme activity of amine salt of the phosphonate versus non-neutralized phosphonate ([2]; phosphonate neutralized with an amine, such as triethanolamine): much improved enzyme activity
- Relative Amylase Enzyme Activity ([3]; All Ash formula, phosphonate 0.3 wt-%, use solution at 120° F., time 0 min): 98.88%
- Relative Amylase Enzyme Activity ([3]; All Ash formula, phosphonate 0.3 wt-%, use solution at 120° F., time 5 min): 100.00%
- Relative Amylase Enzyme Activity ([3]; All Ash formula, phosphonate 0.3 wt-%, use solution at 120° F., time 10 min): 94.76%
- Relative Amylase Enzyme Activity ([3]; All Ash formula, phosphonate 0.3 wt-%, use solution at 120° F., time 20 min): 90.04%
- Relative Amylase Enzyme Activity ([3]; All Ash formula, phosphonate 0.3 wt-%, use solution at 120° F., time 40 min): 63.67%
- Relative Amylase Enzyme Activity ([3]; All Ash formula, phosphonate 0.3 wt-%, use solution at 120° F., time 60 min): 58.65%
- Relative Amylase Enzyme Activity ([3]; All Ash formula, phosphonate 0.3 wt-%, use solution at 120° F., time 90 min): 54.03%
- Relative Amylase Enzyme Activity ([3]; All Ash formula, phosphonate 0.3 wt-%, use solution at 120° F., time 120 min): 45.38%
- Relative Amylase Enzyme Activity ([3]; All Ash formula, phosphonate 0.3 wt-%, use solution at 120° F., time 150 min): 44.40%
- Relative Amylase Enzyme Activity ([3]; All Ash formula, phosphonate 0.3 wt-%, use solution at 120° F., time 180 min): 41.15%
- Relative Amylase Enzyme Activity ([3]; All Ash formula, phosphonate 0.3 wt-%, use solution at 120° F., time 210 min): 41.56%
- Relative Amylase Enzyme Activity ([3]; All Ash formula, phosphonate 0.3 wt-%, use solution at 120° F., time 240 min): 40.40%
- Relative Amylase Enzyme Activity ([3]; base formula, phosphonate 0.3 wt-%, use solution at 120° F., time 0 min): 100.00%
- Relative Amylase Enzyme Activity ([3]; base formula, phosphonate 0.3 wt-%, use solution at 120° F., time 5 min): 96.90%
- Relative Amylase Enzyme Activity ([3]; base formula, phosphonate 0.3 wt-%, use solution at 120° F., time 10 min): 94.03%
- Relative Amylase Enzyme Activity ([3]; base formula, phosphonate 0.3 wt-%, use solution at 120° F., time 20 min): 86.69%
- Relative Amylase Enzyme Activity ([3]; base formula, phosphonate 0.3 wt-%, use solution at 120° F., time 40 min): 83.68%
- Relative Amylase Enzyme Activity ([3]; base formula, phosphonate 0.3 wt-%, use solution at 120° F., time 60 min): 86.51%
- Relative Amylase Enzyme Activity ([3]; base formula, phosphonate 0.3 wt-%, use solution at 120° F., time 90 min): 84.89%
- Relative Amylase Enzyme Activity ([3]; base formula, phosphonate 0.3 wt-%, use solution at 120° F., time 120 min): 85.85%
- Relative Amylase Enzyme Activity ([3]; base formula, phosphonate 0.3 wt-%, use solution at 120° F., time 150 min): 76.25%
- Relative Amylase Enzyme Activity ([3]; base formula, phosphonate 0.3 wt-%, use solution at 120° F., time 180 min): 81.01%
- Relative Amylase Enzyme Activity ([3]; base formula, phosphonate 0.3 wt-%, use solution at 120° F., time 210 min): 81.99%
- Relative Amylase Enzyme Activity ([3]; base formula, phosphonate 0.3 wt-%, use solution at 120° F., time 240 min): 81.88%
- Relative Amylase Enzyme Activity ([3]; base formula, phosphonate 0.6 wt-%, use solution at 120º F., time 0 min): 100.00%
- Relative Amylase Enzyme Activity ([3]; base formula, phosphonate 0.6 wt-%, use solution at 120º F., time 5 min): 107.86%
- Relative Amylase Enzyme Activity ([3]; base formula, phosphonate 0.6 wt-%, use solution at 120º F., time 10 min): 111.05%
- Relative Amylase Enzyme Activity ([3]; base formula, phosphonate 0.6 wt-%, use solution at 120º F., time 20 min): 106.52%
- Relative Amylase Enzyme Activity ([3]; base formula, phosphonate 0.6 wt-%, use solution at 120º F., time 40 min): 73.11%
- Relative Amylase Enzyme Activity ([3]; base formula, phosphonate 0.6 wt-%, use solution at 120º F., time 60 min): 79.10%
- Relative Amylase Enzyme Activity ([3]; base formula, phosphonate 0.6 wt-%, use solution at 120º F., time 90 min): 71.11%
- Relative Amylase Enzyme Activity ([3]; base formula, phosphonate 0.6 wt-%, use solution at 120º F., time 120 min): 64.98%
- Relative Amylase Enzyme Activity ([3]; base formula, phosphonate 0.6 wt-%, use solution at 120º F., time 150 min): 74.97%
- Relative Amylase Enzyme Activity ([3]; base formula, phosphonate 0.6 wt-%, use solution at 120º F., time 180 min): 85.22%
- Relative Amylase Enzyme Activity ([3]; base formula, phosphonate 0.6 wt-%, use solution at 120º F., time 210 min): 94.67%
- Relative Amylase Enzyme Activity ([3]; base formula, phosphonate 0.6 wt-%, use solution at 120º F., time 240 min): 97.07%
- Relative Amylase Enzyme Activity ([3]; base formula, phosphonate at 0.1% elemental phosphorus level, use solution at 120º F., time 0 min): 90.07%
- Relative Amylase Enzyme Activity ([3]; base formula, phosphonate at 0.1% elemental phosphorus level, use solution at 120º F., time 5 min): 100.00%
- Relative Amylase Enzyme Activity ([3]; base formula, phosphonate at 0.1% elemental phosphorus level, use solution at 120º F., time 10 min): 98.00%
- Relative Amylase Enzyme Activity ([3]; base formula, phosphonate at 0.1% elemental phosphorus level, use solution at 120º F., time 20 min): 89.44%
- Relative Amylase Enzyme Activity ([3]; base formula, phosphonate at 0.1% elemental phosphorus level, use solution at 120º F., time 40 min): 90.60%
- Relative Amylase Enzyme Activity ([3]; base formula, phosphonate at 0.1% elemental phosphorus level, use solution at 120º F., time 60 min): 86.05%
- Relative Amylase Enzyme Activity ([3]; base formula, phosphonate at 0.1% elemental phosphorus level, use solution at 120º F., time 90 min): 90.47%
- Relative Amylase Enzyme Activity ([3]; base formula, phosphonate at 0.1% elemental phosphorus level, use solution at 120º F., time 120 min): 89.11%
- Relative Amylase Enzyme Activity ([3]; base formula, phosphonate at 0.1% elemental phosphorus level, use solution at 120º F., time 150 min): 88.36%
- Relative Amylase Enzyme Activity ([3]; base formula, phosphonate at 0.1% elemental phosphorus level, use solution at 120º F., time 180 min): 82.80%
- Relative Amylase Enzyme Activity ([3]; base formula, phosphonate at 0.1% elemental phosphorus level, use solution at 120º F., time 210 min): 84.45%
- Relative Amylase Enzyme Activity ([3]; base formula, phosphonate at 0.1% elemental phosphorus level, use solution at 120º F., time 240 min): 91.39%
